Results: PubChem BioAssay AID1671204

Target: Tyrosine-protein kinase ABL1 (Homo sapiens) (UniProt P00519)
Assay: inhibition of ABL1 tyrosine kinase activity – biochemical, Z'-LYTE FRET, direct format, recombinant human, dose response (AID 1671204)
Conditions: Z'-LYTE FRET kinase assay

Sequence of Tyrosine-protein kinase ABL1 (Homo sapiens) (P00519 whole entry, looked up): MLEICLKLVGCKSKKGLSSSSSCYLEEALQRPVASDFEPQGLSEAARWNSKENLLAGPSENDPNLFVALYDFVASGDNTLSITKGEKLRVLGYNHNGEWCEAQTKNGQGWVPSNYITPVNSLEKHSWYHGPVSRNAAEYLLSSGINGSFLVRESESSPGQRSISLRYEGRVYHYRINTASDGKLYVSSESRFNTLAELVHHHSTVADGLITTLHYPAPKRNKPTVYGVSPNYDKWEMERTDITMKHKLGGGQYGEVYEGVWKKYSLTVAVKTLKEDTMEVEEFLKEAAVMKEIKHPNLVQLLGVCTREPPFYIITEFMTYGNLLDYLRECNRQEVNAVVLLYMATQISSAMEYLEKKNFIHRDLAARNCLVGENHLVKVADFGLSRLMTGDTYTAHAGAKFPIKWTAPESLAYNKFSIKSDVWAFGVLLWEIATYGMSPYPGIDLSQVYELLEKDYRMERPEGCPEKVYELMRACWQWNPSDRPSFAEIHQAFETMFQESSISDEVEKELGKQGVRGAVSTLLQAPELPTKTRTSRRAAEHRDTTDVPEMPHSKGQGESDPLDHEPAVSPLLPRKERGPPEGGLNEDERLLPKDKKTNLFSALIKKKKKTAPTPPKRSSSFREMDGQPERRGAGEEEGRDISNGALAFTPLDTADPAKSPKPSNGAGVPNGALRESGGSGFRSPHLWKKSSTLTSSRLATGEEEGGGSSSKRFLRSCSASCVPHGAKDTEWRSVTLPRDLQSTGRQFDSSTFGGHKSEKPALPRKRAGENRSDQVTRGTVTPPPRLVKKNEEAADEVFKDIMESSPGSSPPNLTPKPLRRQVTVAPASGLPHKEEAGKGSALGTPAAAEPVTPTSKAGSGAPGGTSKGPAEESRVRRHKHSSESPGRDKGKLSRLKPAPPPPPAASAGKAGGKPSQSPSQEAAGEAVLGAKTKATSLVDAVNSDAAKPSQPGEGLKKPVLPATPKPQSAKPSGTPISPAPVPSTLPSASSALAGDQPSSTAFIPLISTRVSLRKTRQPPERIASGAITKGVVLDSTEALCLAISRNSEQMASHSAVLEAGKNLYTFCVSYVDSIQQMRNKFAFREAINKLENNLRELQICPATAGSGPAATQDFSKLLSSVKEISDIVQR

IC50: 434 nM
SMILES: COc1cc2ncnc(Nc3cccc(Cl)c3)c2cc1OC
